The values that follow come from PMC11597697, “Chemical Composition and Bioactivity Dataset Integration to Identify Antiproliferative Compounds in Phyllanthus Plants” (Pharmaceutics, 2024).

Read-outs that look alike come from different tables or passages of the source.

The test system of experiment [1] is A549 (lung carcinoma). Put plainly: Antiproliferative MTT assay, A549. The format is cell-based. To be noted: Homo sapiens, read-out: IC50 A549. The protocol: (§1) Human cancer cell lines—prostatic adenocarcinoma (PC-3, ATCC CRL-7934), lung adenocarcinoma (A549, ATCC CCL-185), and cervical carcinoma (SiHa, ATCC HTB-35)—along with normal mouse fibroblasts (L929, ATCC CRL-6364) were cultured as monolayers in Dulbecco’s Modified Eagle Medium (DMEM) supplemented with 10% (v/v) fetal bovine serum (FBS), 1% (v/v) penicillin, and 1% (v/v) streptomycin. These cultures were maintained at 37 °C in a humidified atmosphere with 5% CO2. The antiproliferative effects of Phyllanthus-derived extracts and isolated compounds were evaluated using a previously described method. Cells were seeded at 5 × 10^3/well in 96-well plates (100 µL) and incubated for 24 h. After incubation, the medium was replaced with 100 µL of serum-free medium containing varying concentrations of the treatments (0.5–250 µg/mL for extracts and 0.01–100 µg/mL for pure compounds). Each treatment was tested in triplicate. Controls included a PBS-containing medium as a blank, 1% (w/v) bovine serum albumin-amended medium as a negative control (100% survival), and podophyllotoxin (0.16–100 µg/mL) as a positive control. After 48 h of treatment, cell viability was determined by adding 10 µL of MTT (5 mg/mL) to each well, followed by a 3-h incubation under the same culture conditions. The resulting formazan crystals were dissolved in 100 µL of DMSO, and absorbance was measured at 570 nm using a Varioskan LUX 96-well plate reader (Thermo Fisher Scientific, Waltham, MA, USA). The antiproliferative effects were quantified as the half-maximal inhibitory concentration (IC50) in µg/mL for extracts and µM for pure compounds. Dose–response curves were used to determine IC50 values from non-linear regression using GraphPad 7.0 (GraphPad, San Diego, CA, USA).

For experiment [2], the system named is PC-3 (prostate adenocarcinoma). Put plainly: Antiproliferative MTT assay, PC-3. It is filed as cell-based. The conditions noted are these: Homo sapiens, read-out: IC50 PC-3. On the procedure:
as §1

Experiment [3] concerns SiHa (cervical carcinoma). Put plainly: Antiproliferative MTT assay, SiHa. The format is cell-based. To be noted: Homo sapiens. On the procedure: as §1
Experiment [4] deals with L929 (murine fibroblasts). Put plainly: Antiproliferative MTT assay, normal fibroblasts L929. It is filed as cell-based, mouse. The conditions noted are these: for IC50: Mus musculus, read-out: IC50 L929. The protocol:
as §1

Setting [5] is: A549, pure compounds, 48 h treatment, MTT.
The mark [6] stands for this setting: pure compounds, 48 h treatment, MTT.
The mark [7] stands for this setting: pure compounds, 48 h treatment, MTT, read-out: IC50 SiHa.
Where [8] appears, read: L929, pure compounds, 48 h treatment, MTT, normal cell line.

In the case of `COc1cc(C=C2C(=O)OCC2Cc2ccc(O)c(OC)c2)ccc1O` (single isomer, unassigned; (+)) [Compound 2, (+)-acutissimalignan B], the IC50 in experiment [1] (setting [5]) was 78.6 µM; in experiment [2] (setting [6]), 6.55 µM; in experiment [3] (setting [7]) it was 56.8 µM; in experiment [4] (setting [8]), > 100 µM. The “IC50 L929” value in experiment [4] (pure compounds, 48 h treatment, MTT, normal cell line) was “no observed cytotoxicity”.
On to `COc1cc(-c2c3c(c(OC)c4cc5c(cc24)OCO5)C(OC(C)=O)OC3=O)cc2c1OCO2` (single isomer, unassigned; (+)) [Compound 6, (+)-5-methoxy-9-(7-methoxybenzo[d][1,3]dioxol-5-yl)-8-oxo-6,8-dihydrofuro[3′,4′:6,7]naphtho[2,3-d][1,3]dioxol-6-yl acetate], for which the IC50 in experiment [1] (A549, 48 h) was 26.5 µM; in experiment [2] (48 h), 15.3 µM; in experiment [3] (48 h, read-out: IC50 SiHa, pure compounds, 48 h treatment, MTT), 3.62 µM; in experiment [4] (L929, 48 h), 86.3 µM.
For the compound `COc1cc2c(OC)c3c(c(-c4ccc5c(c4)OCO5)c2cc1O)C(=O)OC3` [Compound 3, phyllanthusmin A], the concentration for half-maximal inhibition (IC50) was determined as 93.2 µM in experiment [1] (setting [5]), 16.3 µM in experiment [2] (setting [6]), 8.61 µM in experiment [3] (setting [7]) and 92.3 µM in experiment [4] (setting [8]).
Take `O=C1OC[C@H](Cc2ccc3c(c2)OCO3)[C@H]1Cc1ccc2c(c1)OCO2` [Compound 4, (−)-hinokinin]: the IC50 in experiment [1] (setting [5]) is 12.3 µM; in experiment [2] (setting [6]) it was 4.55 µM; in experiment [3] (setting [7]) it was 61.2 µM; in experiment [4] (setting [8]), 76.3 µM.
Consider `COc1cc2c(OC)c3c(c(-c4ccc5c(c4)OCO5)c2cc1OC)C(=O)OC3` [Compound 5, justicidin A], for which the IC50 is 50.3 µM in experiment [1] (setting [5]), 17.6 µM in experiment [2] (setting [6]), 6.53 µM in experiment [3] (setting [7]) and > 100 µM in experiment [4] (setting [8]).
As for `COc1cc2c(OC)c3c(c(-c4ccc5c(c4)OCO5)c2cc1OC)C(=O)OC3OC` (centres unmarked) [Compound 7, justicidin P], the IC50 in experiment [1] (setting [5]) is 45.3 µM; in experiment [2] (setting [6]), 15.2 µM; in experiment [3] (setting [7]), 5.23 µM; in experiment [4] (setting [8]), > 100 µM.
Take `COc1cc([C@@H]2c3cc4c(cc3[C@H](O)[C@H]3COC(=O)[C@H]23)OCO4)cc(OC)c1OC` [ppt, podophyllotoxin, reference compound]: the IC50 was 4.82 µM in experiment [1] (A549, 48 h); 2.22 µM in experiment [2] (48 h); 1.85 µM in experiment [3] (48 h, read-out: IC50 SiHa); 2.53 µM in experiment [4] (L929, 48 h).
